Experiment [1] concerns the target T1, Sentrin-specific protease 7 (Homo sapiens, UniProt Q9BQF6).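 Also: Luminescence-based dose-response confirmation of ultra-high-throughput screening hits, measuring inhibition of SENP7.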
T1 sequence (Q9BQF6 whole entry): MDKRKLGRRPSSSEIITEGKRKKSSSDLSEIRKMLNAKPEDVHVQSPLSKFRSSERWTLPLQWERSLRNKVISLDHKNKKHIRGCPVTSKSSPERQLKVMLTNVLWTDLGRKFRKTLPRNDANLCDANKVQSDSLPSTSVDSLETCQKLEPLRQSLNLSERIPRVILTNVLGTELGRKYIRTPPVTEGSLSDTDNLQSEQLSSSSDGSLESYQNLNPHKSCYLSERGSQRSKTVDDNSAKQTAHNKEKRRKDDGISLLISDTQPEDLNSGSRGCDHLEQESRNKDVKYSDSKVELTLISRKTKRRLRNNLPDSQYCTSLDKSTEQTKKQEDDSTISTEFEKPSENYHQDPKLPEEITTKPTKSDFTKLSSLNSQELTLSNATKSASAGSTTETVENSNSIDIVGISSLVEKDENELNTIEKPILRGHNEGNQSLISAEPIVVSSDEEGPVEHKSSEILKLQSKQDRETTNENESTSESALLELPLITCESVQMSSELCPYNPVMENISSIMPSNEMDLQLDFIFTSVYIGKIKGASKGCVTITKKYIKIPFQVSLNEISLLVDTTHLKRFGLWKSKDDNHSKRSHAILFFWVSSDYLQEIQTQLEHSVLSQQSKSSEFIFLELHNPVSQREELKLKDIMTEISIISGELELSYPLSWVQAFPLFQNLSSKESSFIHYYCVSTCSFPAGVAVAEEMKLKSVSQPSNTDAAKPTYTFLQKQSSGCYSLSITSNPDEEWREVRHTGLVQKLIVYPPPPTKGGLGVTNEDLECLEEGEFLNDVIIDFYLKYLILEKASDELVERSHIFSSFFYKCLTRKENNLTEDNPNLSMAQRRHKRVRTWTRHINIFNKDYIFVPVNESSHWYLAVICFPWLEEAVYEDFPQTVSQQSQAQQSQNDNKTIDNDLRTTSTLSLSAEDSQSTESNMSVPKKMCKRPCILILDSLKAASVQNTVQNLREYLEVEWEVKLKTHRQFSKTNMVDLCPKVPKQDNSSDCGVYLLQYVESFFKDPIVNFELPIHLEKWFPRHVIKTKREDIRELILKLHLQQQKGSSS
The experiment is classed as functional.

Experiment [2] in a line: NIH-3T3 fibroblast cytotoxicity, dose response, cytotoxicity control, cell-based, fluorescence, Alamar Blue, secondary assay (AID 2327).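 Also: NIH-3T3 mouse fibroblasts cultured with fluconazole at 8 µg/mL.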 The format is functional.

Activity calls are given as the source filed them.

Turning to `CC(C)N(C(=O)Nc1ccc2nsnc2c1)C(C)C`, in experiment [1], the IC50 was 3.49 µM (active). Consider `CC(C)n1cnc2c(NCc3ccccc3)cc(OCC3CCN(C)CC3)cc21`, for which the IC50 in experiment [1] is 5.65 µM (active). Regarding `NS(=O)(=O)c1ccc(NC2=CC(=O)C(=O)c3ccccc32)cc1`, the IC50 in experiment [1] is 7.93 µM (active). Take `CCC(=O)NC(c1ccccc1OC)c1ccc2cccnc2c1O` (stereo not given): in experiment [2], the EC50 was 26.6 µM (inconclusive). Same read-out and setting: to `O=C(N/N=C/c1ccc(O)cc1O)c1ccc(CN2C(=O)c3cccc4cccc2c34)cc1` belongs 4.96 µM (active).
